In experiment [1] the target is T1, TyrBm (tyrosinase from Bacillus megaterium) (Priestia megaterium, UniProt B2ZB02).
T1 sequence (B2ZB02 1-297): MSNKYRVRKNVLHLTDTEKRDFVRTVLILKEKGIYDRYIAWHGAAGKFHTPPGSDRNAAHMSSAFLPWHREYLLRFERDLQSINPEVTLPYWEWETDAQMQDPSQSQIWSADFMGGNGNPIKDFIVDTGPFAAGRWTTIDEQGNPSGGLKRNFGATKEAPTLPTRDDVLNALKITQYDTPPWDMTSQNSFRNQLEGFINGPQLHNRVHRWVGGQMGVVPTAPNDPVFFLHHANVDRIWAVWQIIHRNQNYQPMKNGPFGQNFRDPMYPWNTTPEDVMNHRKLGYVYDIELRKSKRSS
The protocol:
The formation of HBP was monitored by measuring the absorbance at 475 nm[26].
Batel Deria,§, Margarita Kanteeva,§, Mor Goldfedera, Daniel Lecinab, Victor Guallarb,c,
Noam Adird, and Ayelet Fishmana,†
presence of reducing agents measured at 475 nm.
increasing concentrations of L-dopa (0-3 mM).
as the substrate in the presence of increasing concentrations of H2O2 (0-90 mM).
reactions contained 6 µg ml-1 of purified TyrBm, 50 mM PBS buffer pH 7.4 and 0.01 mM
(§1) (1 picture or pasted object on this page, not shown here)

Experiment [2] deals with T1, TyrBm (tyrosinase from Bacillus megaterium). The conditions noted are these: 1 mM L-dopa. The protocol: Measurements were carried out using a Hansatech Oxygraph+ electrode (Norfolk, UK) in a reaction volume of 1000 μL.
(a) Spectrophotometric recordings measured at 475 nm. All measurements were performed in heptaplicates. (b) Oxygen consumption recordings. The inset presents the oxygen […]
measurements were performed in triplicates. The reactions contained 4 µg ml-1 of purified […]
The slopes representing the activity rate are given for each graph.
as §1

In the next experiment the target is mushroom tyrosinase. The conditions noted are these: cited from earlier work.
Experiment [3] relates to Agaricus bisporus tyrosinase. To be noted: HQ as substrate; cited from earlier work.
For experiment [4], the target named is T1, TyrBm (tyrosinase from Bacillus megaterium). As to the kind of experiment: biochemical.
Method: Tyrosinase inhibitory activity was determined spectrophotometrically in 96-well plates with a final volume of 200 μl. First, 50 mM PBS buffer pH 7.4 and 0.01 mM CuSO4 were mixed with 6 μg ml^−1 of purified enzyme. Then, the mixture was incubated at 40 °C for 2 minutes. […] Specific activity was calculated as the ratio of the conversion rate and the total protein content as determined by the Bradford analysis method (Bio-Rad, Israel). All measurements were performed in seven replicates.
Experiment [5] has the same target. The experiment is described as follows: Kinetic analysis of tyrosinase (Lineweaver-Burk plots). In kind it is biochemical. More on the design: made in house; host or cells: Escherichia coli BL21. The procedure:
All measurements were performed in seven replicates.
The inhibitor concentrations were mentioned above. The inhibition kinetics module of Sigma Plot 13.0 software was used (Systat Software, Inc., Richmond, CA, USA). All measurements were performed in 5-replicates.

For experiment [6] the target is unchanged. The experiment is described as follows: biochemical. In kind it is binding. Details: made in house; host or cells: Escherichia coli BL21. The protocol: TyrBm was labeled fluorescently with a RED dye (NT-647-NHS) according to the manufacturer’s protocol (NanoTemper Technologies, Munich, Germany). Non-bound dye was removed by purification of the enzyme on a Sephadex G-25 column with buffers provided in the commercial kit. […] Approximately 10 μl of sample was loaded into hydrophilic monolith NT capillaries and the measurement was performed in a NanoTemper Monolith NT.015T instrument. The emission of the red fluorescence was recorded at a focused location of the capillary. In the same location, a microscopic temperature gradient was created using an infrared laser and the fluorescence depletion was measured. According to changes in the fluorescent thermophoresis signal and the concentrations of unlabeled inhibitor, the dissociation constant values were determined by the NanoTemper analysis software.
(b) Titration of rising concentrations of
(c) Titration of rising concentrations of L-tyrosine (0-
The reactions contained constant concentration of TyrBm
as §1

The text below walks through data of publication PMC5057104, “The unravelling of the complex pattern of tyrosinase inhibition” (Scientific Reports, 2016).

Values joined by “and” are separate entries in the source; they are usually repeats but may differ in a detail not shown here. Equal values may be shown once. “Also recorded” adds a separate entry of the source. Read-outs that look alike come from different tables or passages of the source.

A word on the Vmax: it is the top rate of the reaction or transport when substrate is in excess. One may read the Ki as the equilibrium dissociation constant of an inhibitor or competing ligand from its target. In general, IC50 refers to the concentration that gives 50% inhibition. A word on the Km: it is the substrate concentration at which the rate is half of its maximum. The Kd is the concentration at which binding is half-saturated. Take `Oc1ccc(O)cc1` [HQ, hydroquinone]: in experiment [1] (HQ as substrate in the presence of H2O2 (100 mM)), the Vmax came to 19 µmol/min/mg. The “activity of TyrBm with L-dopa and HQ higher than with L-dopa alone” value came out at 17% in experiment [1] (absorbance readings at 475 nm, 1 mM L-dopa, 0.1 mM HQ) and 8% in experiment [2] (oxygen consumption measurements, 0.1 mM HQ). Further, the “TyrBm activity with HQ as a sole substrate” value in experiment [1] (several hours, without H2O2 or L-dopa, visual, vs control without enzyme) is recorded as “low activity was visually observed”. Besides, the “effect on TyrBm activity on L-dopa” value in experiment [2] (spectrophotometric and oxygen consumption recordings, 0.1 mM compound) was “enhances activity”. Further, the “IC50 with L-dopa higher in comparison to L-tyrosine” value at mushroom tyrosinase is 80 fold. The Ki at mushroom tyrosinase (competitive, ref 25 Chawla et al.) is 83 µM; in experiment [5] (substrate L-tyrosine) it was 40 ± 10 µM. Besides, the results for the IC50 (at mushroom tyrosinase (monophenols); in experiment [4]) were 33.5 µM and 32 ± 2 µM, respectively. In addition, in experiment [3], the Km was 250 µM. Further, the Inhibition mode entry in experiment [5] (diphenolase activity, substrate L-dopa) is given as “no inhibition; also recorded: does not inhibit”; in experiment [5] (monophenolase activity, substrate L-tyrosine), “competitive”. Moreover, the “Vmax (apparent, in presence of inhibitor)” value in experiment [5] (substrate L-tyrosine) is 9.0 µmol/min/mg and 9.0 ± 0.5 µmol/min/mg. In addition, the “kcat (in presence of inhibitor)” value in experiment [5] (substrate L-tyrosine) turned out to be 5.3 s⁻¹. For the same molecule, binding in experiment [6] was put at a Kd of 9 ± 1 µM. Moreover, the “dissociation constant higher than L-tyrosine” value in experiment [6] came out at 90 fold.
Regarding `N[C@@H](Cc1ccc(O)cc1)C(=O)O` [L-tyrosine], the Kd in experiment [6] (read-out: KD) was determined as 0.1 ± 0.03 µM.
For `O=c1cccccc1O` [Tropolone], the Inhibition mode entry in the experiment with mushroom tyrosinase was “mixed”.
